Measured values reported in PubChem BioAssay (NCI).
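These data come from cells grown in 96-well plates and exposed to compound for 48 hours at five concentrations. TGI is the concentration that stops growth completely.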

Columns and labels:
Assay in all cases: inhibition of tumour cell growth, NCI panel, 48 h
SF-268 CNS = system: SF-268 CNS
HCT-116 colon = system: HCT-116 colon
NCI-H23 lung = system: NCI-H23 lung
DMS 114 small cell lung = system: DMS 114 small cell lung
NCI-H522 lung = system: NCI-H522 lung
NCI-H226 lung = system: NCI-H226 lung
786-0 renal = system: 786-0 renal
OVCAR-5 ovarian = system: OVCAR-5 ovarian
HOP-62 NSCLC = system: HOP-62 NSCLC
SNB-78 CNS = system: SNB-78 CNS
OVCAR-8 ovarian = system: OVCAR-8 ovarian
HOP-18 NSCLC = system: HOP-18 NSCLC
ACHN renal = system: ACHN renal
CCRF-CEM leukemia = system: CCRF-CEM leukemia
MALME-3M melanoma = system: MALME-3M melanoma
M19-MEL melanoma = system: M19-MEL melanoma
K-562 leukemia = system: K-562 leukemia
KM20L2 colon = system: KM20L2 colon
HOP-92 NSCLC = system: HOP-92 NSCLC
SN12C renal = system: SN12C renal
HL-60(TB) leukemia = system: HL-60(TB) leukemia
SNB-19 CNS = system: SNB-19 CNS
SNB-75 CNS = system: SNB-75 CNS
A549 NSCLC = system: A549 NSCLC
U251 CNS = system: U251 CNS
UO-31 renal = system: UO-31 renal
MOLT-4 leukemia = system: MOLT-4 leukemia
UACC-62 melanoma = system: UACC-62 melanoma
TK-10 renal = system: TK-10 renal
UACC-257 melanoma = system: UACC-257 melanoma
COLO 205 colon = system: COLO 205 colon
CAKI-1 renal = system: CAKI-1 renal
EKVX NSCLC = system: EKVX NSCLC
SK-MEL-5 melanoma = system: SK-MEL-5 melanoma
HT29 colon = system: HT29 colon
DMS 273 small cell lung = system: DMS 273 small cell lung
XF 498 CNS = system: XF 498 CNS
A498 renal = system: A498 renal
M14 melanoma = system: M14 melanoma
HCC-2998 colon = system: HCC-2998 colon
SK-MEL-2 melanoma = system: SK-MEL-2 melanoma
RPMI-8226 leukemia = system: RPMI-8226 leukemia
LXFL 529 NSCLC = system: LXFL 529 NSCLC
SF-295 CNS = system: SF-295 CNS
SF-539 CNS = system: SF-539 CNS
SW-620 colon = system: SW-620 colon
SK-OV-3 ovarian = system: SK-OV-3 ovarian
RXF 393 renal = system: RXF 393 renal
SK-MEL-28 melanoma = system: SK-MEL-28 melanoma
KM12 colon = system: KM12 colon
IGROV1 ovarian = system: IGROV1 ovarian
LOX IMVI melanoma = system: LOX IMVI melanoma
OVCAR-3 ovarian = system: OVCAR-3 ovarian
NCI-H460 lung = system: NCI-H460 lung
OVCAR-4 ovarian = system: OVCAR-4 ovarian
DLD-1 colon = system: DLD-1 colon
HCT-15 colon = system: HCT-15 colon
SR leukemia = system: SR leukemia

In the case of `COC(c1ccccc1)C(c1ccccc1)N1CCOCC1` (stereo unspecified), the TGI (SF-268 CNS) was > 100 µM, the TGI (HCT-116 colon) was > 100 µM and the TGI (NCI-H23 lung) was > 100 µM. The TGI (DMS 114 small cell lung) was > 100 µM, the TGI (NCI-H522 lung) was > 100 µM and the TGI (NCI-H226 lung) was > 100 µM. For the same compound, the TGI (786-0 renal) was > 100 µM, the TGI (OVCAR-5 ovarian) was > 100 µM and the TGI (HOP-62 NSCLC) was > 100 µM. The TGI (SNB-78 CNS) was > 100 µM, the TGI (OVCAR-8 ovarian) was > 100 µM and the TGI (HOP-18 NSCLC) was > 100 µM. The TGI (ACHN renal) was > 100 µM, the TGI (CCRF-CEM leukemia) was > 100 µM and the TGI (MALME-3M melanoma) was > 100 µM. For the same compound, the TGI (M19-MEL melanoma) was > 100 µM, the TGI (K-562 leukemia) was > 100 µM and the TGI (KM20L2 colon) was > 100 µM. The TGI (HOP-92 NSCLC) was > 100 µM, the TGI (SN12C renal) was > 100 µM and the TGI (HL-60(TB) leukemia) was > 100 µM. For the same compound, the TGI (SNB-19 CNS) was > 100 µM, the TGI (SNB-75 CNS) was > 100 µM and the TGI (A549 NSCLC) was > 100 µM. For the same compound, the TGI (U251 CNS) was > 100 µM, the TGI (UO-31 renal) was > 100 µM and the TGI (MOLT-4 leukemia) was > 100 µM. For the same compound, the TGI (UACC-62 melanoma) was > 100 µM, the TGI (TK-10 renal) was > 100 µM and the TGI (UACC-257 melanoma) was > 100 µM. The TGI (COLO 205 colon) was > 100 µM, the TGI (CAKI-1 renal) was > 100 µM and the TGI (EKVX NSCLC) was > 100 µM. For the same compound, the TGI (SK-MEL-5 melanoma) was > 100 µM, the TGI (HT29 colon) was > 100 µM and the TGI (DMS 273 small cell lung) was > 100 µM. The TGI (XF 498 CNS) was > 100 µM, the TGI (A498 renal) was > 100 µM and the TGI (M14 melanoma) was > 100 µM. For the same compound, the TGI (HCC-2998 colon) was > 100 µM, the TGI (SK-MEL-2 melanoma) was > 100 µM and the TGI (RPMI-8226 leukemia) was > 100 µM. The TGI (LXFL 529 NSCLC) was > 100 µM, the TGI (SF-295 CNS) was > 100 µM and the TGI (SF-539 CNS) was > 100 µM. For the same compound, the TGI (SW-620 colon) was > 100 µM, the TGI (SK-OV-3 ovarian) was > 100 µM and the TGI (RXF 393 renal) was > 100 µM. The TGI (SK-MEL-28 melanoma) was > 100 µM, the TGI (KM12 colon) was > 100 µM and the TGI (IGROV1 ovarian) was > 100 µM. The TGI (LOX IMVI melanoma) was > 100 µM, the TGI (OVCAR-3 ovarian) was > 100 µM and the TGI (NCI-H460 lung) was > 100 µM. The TGI (OVCAR-4 ovarian) was > 100 µM and the TGI (DLD-1 colon) was > 100 µM.

`Cc1cn(C2CC(OC3CCCCO3)C(CO)O2)c(=O)[nH]c1=O` (stereo unspecified) was tested, and the TGI (SF-268 CNS) was > 100 µM, the TGI (HCT-116 colon) was > 100 µM and the TGI (NCI-H23 lung) was > 100 µM. The TGI (NCI-H522 lung) was > 100 µM, the TGI (NCI-H226 lung) was > 100 µM and the TGI (786-0 renal) was > 100 µM. The TGI (OVCAR-5 ovarian) was > 100 µM, the TGI (HOP-62 NSCLC) was > 100 µM and the TGI (SNB-78 CNS) was > 100 µM. For the same compound, the TGI (OVCAR-8 ovarian) was > 100 µM, the TGI (HOP-18 NSCLC) was > 100 µM and the TGI (ACHN renal) was > 100 µM. For the same compound, the TGI (CCRF-CEM leukemia) was > 100 µM, the TGI (MALME-3M melanoma) was > 100 µM and the TGI (M19-MEL melanoma) was > 100 µM. For the same compound, the TGI (K-562 leukemia) was > 100 µM, the TGI (KM20L2 colon) was > 100 µM and the TGI (HOP-92 NSCLC) was > 100 µM. For the same compound, the TGI (SN12C renal) was > 100 µM, the TGI (HL-60(TB) leukemia) was > 100 µM and the TGI (SNB-19 CNS) was > 100 µM. For the same compound, the TGI (A549 NSCLC) was > 100 µM, the TGI (U251 CNS) was > 100 µM and the TGI (UO-31 renal) was > 100 µM. For the same compound, the TGI (MOLT-4 leukemia) was > 100 µM, the TGI (TK-10 renal) was > 100 µM and the TGI (UACC-257 melanoma) was > 100 µM. The TGI (COLO 205 colon) was > 100 µM, the TGI (EKVX NSCLC) was > 100 µM and the TGI (HT29 colon) was > 100 µM. The TGI (DMS 273 small cell lung) was > 100 µM, the TGI (XF 498 CNS) was > 100 µM and the TGI (A498 renal) was > 100 µM. For the same compound, the TGI (M14 melanoma) was > 100 µM, the TGI (HCC-2998 colon) was > 100 µM and the TGI (SK-MEL-2 melanoma) was > 100 µM. The TGI (RPMI-8226 leukemia) was > 100 µM, the TGI (LXFL 529 NSCLC) was > 100 µM and the TGI (HCT-15 colon) was > 100 µM. The TGI (SF-295 CNS) was > 100 µM, the TGI (SF-539 CNS) was > 100 µM and the TGI (SW-620 colon) was > 100 µM. For the same compound, the TGI (SK-OV-3 ovarian) was > 100 µM, the TGI (RXF 393 renal) was > 100 µM and the TGI (SK-MEL-28 melanoma) was > 100 µM. The TGI (KM12 colon) was > 100 µM, the TGI (IGROV1 ovarian) was > 100 µM and the TGI (LOX IMVI melanoma) was > 100 µM. The TGI (OVCAR-3 ovarian) was > 100 µM, the TGI (NCI-H460 lung) was > 100 µM and the TGI (OVCAR-4 ovarian) was > 100 µM. The TGI (DLD-1 colon) was > 100 µM and the TGI (SR leukemia) was > 100 µM.

For `O=C1CC[C@H](NC(=O)Cc2ccccc2)C(=O)N1`, the TGI (SF-268 CNS) was > 1250 µM, the TGI (HCT-116 colon) was > 1250 µM and the TGI (NCI-H23 lung) was > 1250 µM. The TGI (NCI-H522 lung) was > 1250 µM, the TGI (NCI-H226 lung) was > 1250 µM and the TGI (786-0 renal) was > 1250 µM. The TGI (OVCAR-5 ovarian) was > 1250 µM, the TGI (HOP-62 NSCLC) was > 1250 µM and the TGI (OVCAR-8 ovarian) was > 1250 µM. For the same compound, the TGI (HOP-18 NSCLC) was > 1250 µM, the TGI (ACHN renal) was > 1250 µM and the TGI (CCRF-CEM leukemia) was > 1250 µM. For the same compound, the TGI (MALME-3M melanoma) was > 1250 µM, the TGI (M19-MEL melanoma) was > 1250 µM and the TGI (K-562 leukemia) was > 1250 µM. For the same compound, the TGI (KM20L2 colon) was > 1250 µM, the TGI (SN12C renal) was > 1250 µM and the TGI (HL-60(TB) leukemia) was > 1250 µM. For the same compound, the TGI (SNB-19 CNS) was > 1250 µM, the TGI (SNB-75 CNS) was > 1250 µM and the TGI (A549 NSCLC) was > 1250 µM. The TGI (U251 CNS) was > 1250 µM, the TGI (UO-31 renal) was > 1250 µM and the TGI (MOLT-4 leukemia) was > 1250 µM. The TGI (UACC-62 melanoma) was > 1250 µM, the TGI (TK-10 renal) was > 1250 µM and the TGI (UACC-257 melanoma) was > 1250 µM. The TGI (COLO 205 colon) was > 1250 µM, the TGI (CAKI-1 renal) was > 1250 µM and the TGI (EKVX NSCLC) was > 1250 µM. The TGI (HT29 colon) was > 1250 µM, the TGI (DMS 273 small cell lung) was > 1250 µM and the TGI (XF 498 CNS) was > 1250 µM. For the same compound, the TGI (M14 melanoma) was > 1250 µM, the TGI (HCC-2998 colon) was > 1250 µM and the TGI (SK-MEL-2 melanoma) was > 1250 µM. The TGI (RPMI-8226 leukemia) was > 1250 µM, the TGI (LXFL 529 NSCLC) was > 1250 µM and the TGI (HCT-15 colon) was > 1250 µM. The TGI (SF-295 CNS) was > 1250 µM, the TGI (SF-539 CNS) was > 1250 µM and the TGI (SW-620 colon) was > 1250 µM. For the same compound, the TGI (SK-OV-3 ovarian) was > 1250 µM, the TGI (RXF 393 renal) was > 1250 µM and the TGI (SK-MEL-28 melanoma) was > 1250 µM. For the same compound, the TGI (KM12 colon) was > 1250 µM, the TGI (IGROV1 ovarian) was > 1250 µM and the TGI (LOX IMVI melanoma) was > 1250 µM. The TGI (NCI-H460 lung) was > 1250 µM, the TGI (OVCAR-4 ovarian) was > 1250 µM and the TGI (DLD-1 colon) was > 1250 µM. For the same compound, the TGI (SR leukemia) was > 1250 µM.
